Assay results as given in patent publication US9809537B2, “Glycosidase inhibitors and uses thereof” (Alectos Therapeutics Inc., priority 2012, dated 2017).

Experiments:
human O-GlcNAcase = molecular target: T1, human O-GlcNAcase (Homo sapiens, UniProt O60502); test: Fluorescence-based assay for KI values for inhibition of O-GlcNAcase activity; format: biochemical; details: purified human O-GlcNAcase, 4-methylumbelliferyl GlcNAc substrate, pH 7.0, Cheng-Prusoff; read-out: Fluorescence-based hOGA Ki
T1 sequence (O60502 1-916): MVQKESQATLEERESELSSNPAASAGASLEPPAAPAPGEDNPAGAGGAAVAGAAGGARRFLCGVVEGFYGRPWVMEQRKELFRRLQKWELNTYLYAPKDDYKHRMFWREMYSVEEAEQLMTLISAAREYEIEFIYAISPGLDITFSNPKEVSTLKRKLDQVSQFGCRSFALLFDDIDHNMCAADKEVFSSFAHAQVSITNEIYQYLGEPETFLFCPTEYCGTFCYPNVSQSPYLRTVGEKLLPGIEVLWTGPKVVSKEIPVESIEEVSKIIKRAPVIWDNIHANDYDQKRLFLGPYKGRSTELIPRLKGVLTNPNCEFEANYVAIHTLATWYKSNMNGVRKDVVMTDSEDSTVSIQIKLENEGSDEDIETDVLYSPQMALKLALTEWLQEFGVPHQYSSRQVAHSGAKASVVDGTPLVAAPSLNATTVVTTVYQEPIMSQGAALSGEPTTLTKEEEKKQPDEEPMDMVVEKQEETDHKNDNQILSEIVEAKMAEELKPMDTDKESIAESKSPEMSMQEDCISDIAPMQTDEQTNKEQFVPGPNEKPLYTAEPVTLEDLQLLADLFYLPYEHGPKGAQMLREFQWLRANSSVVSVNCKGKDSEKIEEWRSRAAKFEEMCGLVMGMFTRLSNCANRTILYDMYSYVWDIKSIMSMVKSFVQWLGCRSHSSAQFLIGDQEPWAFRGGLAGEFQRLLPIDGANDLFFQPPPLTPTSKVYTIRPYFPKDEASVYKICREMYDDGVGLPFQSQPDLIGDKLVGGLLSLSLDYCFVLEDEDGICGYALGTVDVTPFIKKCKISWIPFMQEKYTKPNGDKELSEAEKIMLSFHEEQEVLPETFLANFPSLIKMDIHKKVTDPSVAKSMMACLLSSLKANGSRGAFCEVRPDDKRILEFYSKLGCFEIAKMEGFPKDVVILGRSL
Experimental: Assay for Determination of KI Values for Inhibition of O-GlcNAcase Activity
Experimental Procedure for Kinetic Analyses:
Enzymatic reactions were carried out in a reaction containing 50 mM NaH2PO4, 100 mM NaCl and 0.1% BSA (pH 7.0) using 2 mM 4-Methylumbelliferyl N-acetyl-β-D-glucosaminide dihydrate (Sigma M2133) dissolved in ddH2O, as a substrate. The amount of purified human O-GlcNAcase enzyme used in the reaction was 0.7 nM. Test compound of varying concentrations was added to the enzyme prior to initiation of the reaction. The reaction was performed at room temperature in a 96-well plate and was initiated with the addition of substrate. The production of fluorescent product was measured every 60 sec for 45 min with a Tecan Infinite M200 plate-reader with excitation at 355 nm and emission detected at […], with 4-Methylumbelliferone (Sigma M1381) used to produce a standard curve. The slope of product production was determined for each concentration of compound tested and plotted, using standard curve fitting algorithms for sigmoidal dose response curves. The values for a four parameter logistic curve fit of the data were determined.
KI values were determined using the Cheng-Prusoff equation; the Km of O-GlcNAcase for substrate was 0.2 mM.

[1] = Apparent permeability (Papp), bi-directional transport; format: in vitro ADME; details: pig, LLC-PK1, t=3 h, average of A to B and B to A, read-out: Papp LLC-PK1 cells
Experimental: Assay for Determination of Apparent Permeability (Papp)
Bi-directional transport is evaluated in LLC-PK1 cells in order to determine apparent permeability (Papp). LLC-PK1 cells can form a tight monolayer and therefore can be used to assess vectorial transport of compounds from basolateral to apical (B→A) and from apical to basolateral (A→B).
To determine Papp, LLC-PK1 cells are cultured in 96-well transwell culture plates (Millipore). Solutions containing the test compounds (1 μM) are prepared in Hank's Balanced Salt Solution with 10 mM HEPES. Substrate solution (150 μL) is added to either the apical (A) or the basolateral (B) compartment of the culture plate, and buffer (150 μL) is added to the compartment opposite to that containing the compound. At t=3 h, 50 μL samples are removed from both sides of monolayers dosed with test compound and placed in 96 well plates, scintillant (200 μL) or internal standard (100 μL labetolol 1 μM) is added to the samples and concentration is determined by liquid scintillation counting in a MicroBeta Wallac Trilux scintillation counter (Perkin Elmer Life Sciences, Boston, Mass.) or by LCMS/MS (Applied Biosystems SCIEX API 5000 triple quadruple mass spectrometer). [^3H]Verapamil (1 μM) is used as the positive control. The experiment is performed in triplicate.
The apparent permeability, Papp, is calculated by the following formula for samples taken at t=3 h:
[formula] Where: Volume of Receptor Chamber is 0.15 mL; Area of membrane is 0.11 cm^2; the Initial Concentration is the sum of the concentration measured in the donor plus concentration measured in receiver compartments at t=3 h; A in Concentration is concentration in the receiver compartment at 3 h; and A in Time is the incubation time (3×60×60=10800 s). Papp is expressed as 10^−6 cm/s. The Papp (LLC-PK1 cells) are the average of the Papp for transport from A to B and Papp for transport from B to A at t=3 h: […]

Row | SMILES | Ki (human O-GlcNAcase) [nM] | Papp at 3 h, 1 μM [1] [×10⁻⁶ cm/s]
1 | CCNC(=O)C[C@@H]1[C@@H](O)[C@H](O)[C@@H](CO)N1CCC(c1ccccc1)c1ccccc1 [Example 12, 2-((2R,3R,4R,5R)-1-(3,3-diphenylpropyl)-3,4-dihydroxy-5-(hydroxymethyl)pyrrolidin-2-yl)-N-ethylacetamide] | 60 | 
2 | CCCCCCN1C(CNC(C)=O)[C@@H](O)[C@H](O)[C@H]1CO (stereo partly drawn) [reference compound] | 619 | < 1.6
3 | CC(=O)NC[C@@H]1[C@@H](O)[C@H](O)[C@@H](CO)N1CCCCc1ccccc1 [Example 5, N-(((2R,3R,4R,5R)-3,4-dihydroxy-5-(hydroxymethyl)-1-(4-phenylbutyl)pyrrolidin-2-yl)methyl)acetamide] | 172 | < 1.6
4 | CCNC(=O)C[C@@H]1[C@@H](O)[C@H](O)[C@@H](CO)N1CCCc1ccc(OC)cc1 [Example 11, 2-((2R,3R,4R,5R)-3,4-dihydroxy-5-(hydroxymethyl)-1-(3-(4-methoxyphenyl)propyl)pyrrolidin-2-yl)-N-ethylacetamide] | 132 | 
5 | CC(=O)NC[C@@H]1[C@@H](O)[C@H](O)[C@@H](CO)N1Cc1ccc(-c2ccccc2)cc1 [Example 9, N-(((2R,3R,4R,5R)-1-([1,1′-biphenyl]-4-ylmethyl)-3,4-dihydroxy-5-(hydroxymethyl)pyrrolidin-2-yl)methyl)acetamide] | 4560 | 
6 | CCCCN1C(CNC(C)=O)[C@@H](O)[C@H](O)[C@H]1CO (stereo partly drawn) [reference compound] | 1030 | 
7 | CC(=O)NC[C@H]1N[C@H](CO)[C@@H](O)[C@@H]1O [reference compound] | 108 | 
8 | CC(=O)NC[C@@H]1[C@@H](O)[C@H](O)[C@@H](CO)N1Cc1cccnc1 [Example 7, N-(((2R,3R,4R,5R)-3,4-dihydroxy-5-(hydroxymethyl)-1-(pyridin-3-ylmethyl)pyrrolidin-2-yl)methyl)acetamide] | 2690 | 
9 | CC(=O)NC[C@@H]1[C@@H](O)[C@H](O)[C@@H](CO)N1CCC(c1ccccc1)c1ccccc1 [Example 6, N-(((2R,3R,4R,5R)-1-(3,3-diphenylpropyl)-3,4-dihydroxy-5-(hydroxymethyl)pyrrolidin-2-yl)methyl)acetamide] | 41 | 
10 | CNC(=O)C[C@@H]1[C@@H](O)[C@H](O)[C@@H](CO)N1CCCc1ccccc1 [Example 10, 2-((2R,3R,4R,5R)-3,4-dihydroxy-5-(hydroxymethyl)-1-(3-phenylpropyl)pyrrolidin-2-yl)-N-methylacetamide] | 55 | 
11 | CC(=O)NC[C@@H]1[C@@H](O)[C@H](O)[C@@H](CO)N1CCCc1ccccc1 [Example 1, N-(((2R,3R,4R,5R)-3,4-dihydroxy-5-(hydroxymethyl)-1-(3-phenylpropyl)pyrrolidin-2-yl)methyl)acetamide] | 369 | 
12 | COc1ccc(CCCN2[C@H](CO)[C@@H](O)[C@H](O)[C@H]2CNC(C)=O)cc1 [Example 2, N-(((2R,3R,4R,5R)-3,4-dihydroxy-5-(hydroxymethyl)-1-(3-(4-methoxyphenyl)propyl)pyrrolidin-2-yl)methyl)acetamide] | 106 | 2.6
13 | CC(=O)NC[C@@H]1[C@@H](O)[C@H](O)[C@@H](CO)N1Cc1ccccn1 [Example 8, N-(((2R,3R,4R,5R)-3,4-dihydroxy-5-(hydroxymethyl)-1-(pyridin-2-ylmethyl)pyrrolidin-2-yl)methyl)acetamide] | 3020 | 
14 | CC(=O)NCC1[C@@H](O)[C@H](O)[C@@H](CO)N1CCc1ccccc1 (stereo partly drawn) [reference compound] | 343 | 
15 | CCCN1C(CNC(C)=O)[C@@H](O)[C@H](O)[C@H]1CO (stereo partly drawn) [reference compound] | 2020 | 
16 | CC(=O)NC[C@@H]1[C@@H](O)[C@H](O)[C@@H](CO)N1CCc1ccc(-c2ccccc2)cc1 [Example 4, N-(((2R,3R,4R,5R)-1-(2-([1,1′-biphenyl]-4-yl)ethyl)-3,4-dihydroxy-5-(hydroxymethyl)pyrrolidin-2-yl)methyl)acetamide] | 79 | 4.4
17 | CNC(=O)C[C@@H]1[C@H](O)[C@H](O)[C@@H](CO)N1CCCc1ccccc1 [Example 13, 2-((2R,3S,4R,5R)-3,4-dihydroxy-5-(hydroxymethyl)-1-(3-phenylpropyl)pyrrolidin-2-yl)-N-methylacetamide] | 8.3 | 
